Reference: ChEMBL document CHEMBL3994665, “Pyrano[2,3,4-cd]indole as a Scaffold for Selective Nonbasic 5-HT6R Ligands” (ACS Med Chem Lett, 2017)

How the values were obtained:
[1] = molecular target: T1, 5-hydroxytryptamine receptor 6 (Homo sapiens, UniProt P50406); experiment: Displacement of [3H]-LSD from 5-HT6 receptor (unknown origin)
[2] = molecular target: 5-hydroxytryptamine receptor 2A (Homo sapiens, UniProt P28223); experiment: Binding affinity to 5HT2A receptor (unknown origin)
[3] = molecular target: 5-hydroxytryptamine receptor 7 (Homo sapiens, UniProt P34969); experiment: Displacement of [3H]-5-CT from 5-HT7b receptor (unknown origin)
5-hydroxytryptamine receptor 7, sequence (P34969 whole entry): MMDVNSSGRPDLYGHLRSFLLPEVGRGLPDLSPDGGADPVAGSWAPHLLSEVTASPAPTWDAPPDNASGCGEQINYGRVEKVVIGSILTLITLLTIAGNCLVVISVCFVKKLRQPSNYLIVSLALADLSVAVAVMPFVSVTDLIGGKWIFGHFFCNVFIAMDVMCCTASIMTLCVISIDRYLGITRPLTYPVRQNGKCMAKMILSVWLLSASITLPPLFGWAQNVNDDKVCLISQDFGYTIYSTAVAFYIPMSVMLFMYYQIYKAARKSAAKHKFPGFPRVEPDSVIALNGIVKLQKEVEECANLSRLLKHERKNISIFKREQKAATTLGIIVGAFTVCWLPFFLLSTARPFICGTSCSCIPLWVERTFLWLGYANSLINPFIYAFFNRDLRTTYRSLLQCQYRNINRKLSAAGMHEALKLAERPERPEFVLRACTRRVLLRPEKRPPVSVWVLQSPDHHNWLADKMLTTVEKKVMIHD

D(2) dopamine receptor = D(2) dopamine receptor (Homo sapiens, UniProt P14416); experiment: Displacement of [3H]-Raclopride from D2L receptor (unknown origin)
D(2) dopamine receptor, sequence (P14416 whole entry): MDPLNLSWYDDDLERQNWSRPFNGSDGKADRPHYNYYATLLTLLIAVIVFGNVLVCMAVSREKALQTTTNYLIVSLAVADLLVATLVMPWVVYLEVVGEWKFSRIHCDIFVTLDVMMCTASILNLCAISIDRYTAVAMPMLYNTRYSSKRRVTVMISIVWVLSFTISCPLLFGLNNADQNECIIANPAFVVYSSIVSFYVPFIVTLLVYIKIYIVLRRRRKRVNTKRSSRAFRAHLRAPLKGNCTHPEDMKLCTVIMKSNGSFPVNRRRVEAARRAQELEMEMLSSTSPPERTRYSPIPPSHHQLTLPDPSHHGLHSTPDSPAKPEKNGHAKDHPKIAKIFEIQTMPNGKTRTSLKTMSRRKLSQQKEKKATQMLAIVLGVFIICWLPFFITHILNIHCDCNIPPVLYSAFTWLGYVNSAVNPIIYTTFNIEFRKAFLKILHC

[4] = molecular target: T2, 5-hydroxytryptamine receptor 1A (Homo sapiens, UniProt P08908); experiment: Displacement of [3H]-8-OH-DPAT from 5HT1A receptor (unknown origin)
T2 sequence (P08908 whole entry): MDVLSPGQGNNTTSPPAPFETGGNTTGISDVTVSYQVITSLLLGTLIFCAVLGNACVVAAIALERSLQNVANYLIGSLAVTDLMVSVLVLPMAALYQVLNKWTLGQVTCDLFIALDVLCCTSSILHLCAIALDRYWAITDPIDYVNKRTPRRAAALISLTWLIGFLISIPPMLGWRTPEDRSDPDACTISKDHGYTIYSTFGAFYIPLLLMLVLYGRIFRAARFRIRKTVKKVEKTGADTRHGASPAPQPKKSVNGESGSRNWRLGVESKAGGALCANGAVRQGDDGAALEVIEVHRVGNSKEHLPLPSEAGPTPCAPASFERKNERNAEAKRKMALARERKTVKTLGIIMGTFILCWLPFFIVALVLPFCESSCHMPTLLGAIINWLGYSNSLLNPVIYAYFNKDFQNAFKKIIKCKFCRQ

[5] = molecular target: T1, 5-hydroxytryptamine receptor 6; experiment: Antagonist activity at 5-HT6 receptor (unknown origin) expressed in HEK293 cells assessed as inhibition of 5-CT induced cAMP production after 30 mins by TR-FRET assay; type: functional, cell-based

T1 sequence (P50406 whole entry): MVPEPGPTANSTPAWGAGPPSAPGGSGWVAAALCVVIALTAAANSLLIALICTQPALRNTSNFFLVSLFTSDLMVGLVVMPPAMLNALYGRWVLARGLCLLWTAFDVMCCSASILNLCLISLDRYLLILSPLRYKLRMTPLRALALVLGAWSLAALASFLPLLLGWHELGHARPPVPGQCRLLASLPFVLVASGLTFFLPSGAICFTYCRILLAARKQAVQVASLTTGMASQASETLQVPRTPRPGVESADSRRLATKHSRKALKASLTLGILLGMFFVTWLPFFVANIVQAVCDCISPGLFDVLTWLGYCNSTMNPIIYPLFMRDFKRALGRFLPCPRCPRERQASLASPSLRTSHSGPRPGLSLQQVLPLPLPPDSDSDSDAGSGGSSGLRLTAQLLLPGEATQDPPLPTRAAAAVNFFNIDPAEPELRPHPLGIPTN
5-hydroxytryptamine receptor 2A, sequence (P28223 whole entry): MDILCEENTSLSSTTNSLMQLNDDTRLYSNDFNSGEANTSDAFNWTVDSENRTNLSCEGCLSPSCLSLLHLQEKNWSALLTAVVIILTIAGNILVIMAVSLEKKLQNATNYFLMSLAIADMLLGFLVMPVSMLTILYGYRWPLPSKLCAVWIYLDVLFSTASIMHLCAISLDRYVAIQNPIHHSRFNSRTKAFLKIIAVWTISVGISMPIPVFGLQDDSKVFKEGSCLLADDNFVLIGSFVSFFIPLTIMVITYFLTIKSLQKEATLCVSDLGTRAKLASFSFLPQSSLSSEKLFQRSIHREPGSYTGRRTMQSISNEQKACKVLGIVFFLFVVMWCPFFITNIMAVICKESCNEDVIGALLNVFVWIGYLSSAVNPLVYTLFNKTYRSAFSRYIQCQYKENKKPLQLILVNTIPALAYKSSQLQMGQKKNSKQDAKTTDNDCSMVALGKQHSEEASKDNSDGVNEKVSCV

| Structure (SMILES) | Ki [1] [µM] | Ki [2] [µM] | Ki [3] [µM] | Ki (D(2) dopamine receptor) [µM] | Ki [4] [µM] | Kb [5] [µM] |
| --- | --- | --- | --- | --- | --- | --- |
| O=S(=O)(c1cccc2ccccc12)n1cc2c3c(cccc31)OC(CO)=C2 | 0.004 | > 10 | > 10 | 4.29 |  |  |
| CN(C)CC1=Cc2cn(S(=O)(=O)c3cccc4ccccc34)c3cccc(c23)O1 | 0.001 | 0.489 | 0.438 | 1.49 | 5.97 |  |
| CC1=C(CO)Oc2cccc3c2c1cn3S(=O)(=O)c1ccccc1 | 0.052 | > 10 | > 10 | > 10 | > 10 |  |
| O=S(=O)(c1ccccc1)n1cc2c3c(cccc31)OC(CO)=C2 | 0.036 | > 10 | > 10 | > 10 | > 10 | 0.016 |
| CN(C)CC1=Cc2cn(S(=O)(=O)c3ccccc3)c3cccc(c23)O1 | 0.005 | 0.065 | 3.69 | 6.7 | > 10 |  |
| N#CC1=Cc2cn(S(=O)(=O)c3cccc4ccccc34)c3cccc(c23)O1 | 0.755 |  | > 10 | > 10 | > 10 |  |
| O=CC1=Cc2cn(S(=O)(=O)c3cccc4ccccc34)c3cccc(c23)O1 | 0.266 |  | > 10 | 5.16 | > 10 |  |
| CCN(CC)CC1=Cc2cn(S(=O)(=O)c3ccccc3)c3cccc(c23)O1 | 0.028 | 1.7 | > 10 | 4.35 | > 10 |  |
| CC1=C(CO)Oc2cccc3c2c1cn3S(=O)(=O)c1cccc2ccccc12 | 0.02 | > 10 | > 10 | > 10 | > 10 |  |
